According to patent publication US4169097A, “2,3-Dihydro-4H-1-benzopyran-4-one O-carbamoyl oximes” (priority 1978, dated 1979):

Tested on: gastric acid secretion
Assay: modified standard pylorus-ligated secretory testing procedure in the rat
Type: in vivo, Sprague-Dawley rats
Conditions: 50-100 mg/kg p.o., 1 hr. prior to ligation, 4 hrs. after ligation; for % Inhibition Gastric acid output: titration to pH 7, vs control 0.5% Methocel; for % Inhibition Volume of gastric secretion: vs control 0.5% Methocel
Text: Such effect is evidenced using a modified standard pylorus-ligated secretory testing procedure in the rat. Sprague-Dawley rats, weighing 180-210 g and previously fasted for 24 hrs., were used. All compounds were given perorally as suspensions in 0.5% Methocel 1 hr. prior to pylorus ligation. Under light ether anesthesia, the rat stomach was ligated at the pylorus region. Four hrs. after ligation, the conscious rat was sacrificed by a chloroform overdose. The stomach was carefully excised and its content drained into a centrifuge tube. Samples were centrifuged to separate secretions from debris. Gastric fluid volume reading and determination of sample contamination, based on debris and sample color, was made. Titration was performed on a sample aliquot from 1 ml diluted to a volume of 5 ml using distilled water. The titrant used was 0.1 N NaOH. Total gastric acid output in the stomach was determined by titration to pH 7. A dose from 50-100 mg/kg p.o. of a compound was administered to a group of rats and its effect on the volume of gastric secretion and acid output compared to a control group receiving 0.5% Methocel p.o. The activity of each compound based on the degree of inhibition of gastric acid output is set forth in Table I.

Structure (SMILES) | % Inhibition Gastric acid output [%] | % Inhibition Volume of gastric secretion [%]
CNC(=O)ON=C1CCOc2ccc(Cl)cc21 [V, 6-Chloro-2,3-dihydro-4H-1-benzopyran-4-one O-(Methylaminocarbonyl)oxime] | 40.0 | 55.2
C=CCNC(=O)ON=C1CCOc2ccccc21 [VII, 2,3-Dihydro-4H-1-benzopyran-4-one O-[(2-Propenyl)aminocarbonyl]oxime] | 89.9 | 76.2
CNC(=O)ON=C1CCOc2ccccc21 [I, 2,3-Dihydro-4H-1-benzopyran-4-one O-(Methylcarbamoyl) oxime] | 60.4 | 34.1
CNC(=O)ON=C1CCOc2ccc(N)cc21 [VI, 6-Amino-2,3-dihydro-4H-1-benzopyran-4-one O(Methylaminocarbonyl)oxime] | 55.8 | 64.4
CCCNC(=O)ON=C1CCOc2ccccc21 [VIII, 2,3-Dihydro-4H-1-benzopyran-4-one 0-(1-Propylaminocarbonyl)oxime] | 88.1 | 73.1
CCNC(=O)ON=C1CCOc2ccc(OC)cc21 [II, 2,3-Dihydro-6-methoxy-4-H-1-benzopyran-4-one O-(Ethylcarbamoyl)-oxime] | 57.7 | 33.2
CNC(=O)ON=C1CCOc2ccc(OC)cc21 [IV, 2,3-Dihydro-6-methoxy-4H-1-benzopyran-4-one O-(Methylaminocarbonyl)oxime] | 45.5 | 35.3
CCNC(=O)ON=C1CCOc2ccccc21 [III, 2,3-Dihydro-4-H-1-Benzopyran-4-one O-(Ethylaminocarbonyl)oxime] | 79.7 | 61.8
NC(=O)ON=C1CCOc2ccccc21 [IX, 2,3-Dihydro-4H-1-benzopyran-4-one O-(Aminocarbonyl)oxime] | 77.9 | 60.5
